Data on 3 compounds can be found in patent US12681015B2, “Methods for predicting patient response to DMARDs” (Queen Mary University of London, priority 2019, dated 2026).

Series [1] deals with MTX-induced upregulation of SPM in human peripheral blood. Put plainly: Human whole blood incubated with L002 or SB202190, then MTX; plasma SPM by LC-MS/MS. Type of series: cell-based. The settings on record: L002 2 μM or SB202190 5 μM, then MTX 100 nM, 37° C., 45 min. The text has this: (§1) Plasma was collected by centrifugation and SPM were identified and quantified using LC-MS/MS based lipid mediator profiling (see methods for details). (A) sPLS-DA score plot of identified lipid mediator concentrations (B) Contribution for the top 10 differentially regulated mediators in principle component 1. Results are representative of n=6 volunteers per group with experiments conducted on two distinct occasions. (C-G) Inflammatory arthritis was initiated in mice by the administration of arthritogenic serum on days 0 and 2. […] Disease severity was assessed by measuring (C) disease activity using a 26-point clinical score, (D) joint histology using hematoxylin and eosin staining of knee sections collected 8 days post disease initiation, original magnification=×4 and (E) body weight. (F,G) Eight days post disease initiation joints were collected, (F) leukocytes were liberated from the paws and the number of neutrophils infiltrated into the paw was determined using flow cytometry and fluorescently labelled antibodies. (G) Lipid mediators were extracted and the concentrations of LTB4 were determined using liquid chromatography tandem-mass spectrometry. C, E, F are mean±SEM and G are percentage of vehicle of n=4 mice per group and experiments were conducted on two distinct occasions. Results for D are representative of n=8 mice per group. * p<0.05 vs Vehicle group for C and E using two-way ANOVA, for F one-way ANOVA, for G using one-sample t test. F=femur; m=meniscus; PF=pannus formation; T=tibia.
Plasma was obtained from peripheral blood of healthy volunteers, patients and mouse following centrifugation at 1500×g for 10 min at room temperature. Paws were collected and immediately transferred to liquid nitrogen prior to homogenization in 1 ml ice cold MeOH and homogenized using a glass dounce. All samples for LC-MS/MS-based profiling were extracted using solid-phase extraction columns as in Walker, M. E., Souza, P. R., Colas, R. A. & Dalli, J. “13-Series resolvins mediate the leukocyte-platelet actions of atorvastatin and pravastatin in inflammatory arthritis.” FASEB J 31, 3636-3648 (2017), the contents of which are incorporated herein by reference. Prior to sample extraction, deuterated internal standards, representing each region in the chromatographic analysis (500 pg each) were added to facilitate quantification. Samples were kept at −20° C. for a minimum of 45 min to allow protein precipitation. Supernatants were subjected to solid phase extraction, methyl formate fraction collected, brought to dryness and suspended in phase (methanol/water, 1:1, vol/vol) for injection on a Shimadzu LC-20AD HPLC and a Shimadzu SIL-20AC autoinjector, paired with a QTrap 5500 or QTrap 6500 plus (Sciex). […]

Series [2] deals with inflammatory arthritis in mice. Put plainly: Inflammatory arthritis in mice treated with MTX plus L002 or MTX plus SB202190. In kind it is in vivo. The settings on record: for anti-arthritic actions of MTX: MTX 25 mg/kg plus inhibitor 20 mg/kg i.p. days 3, 5 and 7; for weight loss, a marker of disease activity / joint inflammation / joint concentrations of LTB4 / joint damage / ability of MTX to regulate neutrophil trafficking to the inflamed joint: MTX plus inhibitor 20 mg/kg; for joint inflammation: 26-point clinical score; for joint concentrations of LTB4: day 8, LC-MS/MS; for joint damage: knee histology, day 8; for ability of MTX to regulate neutrophil trafficking to the inflamed joint: paws, day 8, flow cytometry.
Source text: as §1
Plasma was obtained from peripheral blood of healthy volunteers, patients and mouse following centrifugation at 1500×g for 10 min at room temperature. Paws were collected and immediately transferred to liquid nitrogen prior to homogenization in 1 ml ice cold MeOH and homogenized using a glass dounce. All samples for LC-MS/MS-based profiling were extracted using solid-phase extraction columns as in Walker, M. E., Souza, P. R., Colas, R. A. & Dalli, J. “13-Series resolvins mediate the leukocyte-platelet actions of atorvastatin and pravastatin in inflammatory arthritis.” FASEB J 31, 3636-3648 (2017), the contents of which are incorporated herein by reference. Prior to sample extraction, deuterated internal standards, representing each region in the chromatographic analysis (500 pg each) were added to facilitate quantification. Samples were kept at −20° C. for a minimum of 45 min to allow protein precipitation. Supernatants were subjected to solid phase extraction, methyl formate fraction collected, brought to dryness and suspended in phase (methanol/water, 1:1, vol/vol) for injection on a Shimadzu LC-20AD HPLC and a Shimadzu SIL-20AC autoinjector, paired with a QTrap 5500 or QTrap 6500 plus (Sciex). An Agilent Poroshell 120 EC-C18 column (100 mm×4.6 mm×2.7 μm) was kept at 50° C. and mediators eluted using a mobile phase consisting of methanol/water/acetic acid of 20:80:0.01 (vol/vol/vol) that was ramped to 50:50:0.01 (vol/vol/vol) over 0.5 min and then to 80:20:0.01 (vol/vol/vol) from 2 min to 11 min, maintained till 14.5 min and then rapidly ramped to 98:2:0.01 (vol/vol/vol) for the next 0.1 min. This was subsequently maintained at 98:2:0.01 (vol/vol/vol) for 5.4 min, and the flow rate was maintained at 0.5 ml/min. QTrap 5500 or QTrap 6500 plus were operated using a multiple reaction monitoring method as in Walker, M. E., Souza, P. R., Colas, R. A. & Dalli, J. “13-Series resolvins mediate the leukocyte-platelet actions of atorvastatin and pravastatin in inflammatory arthritis.” FASEB J 31, 3636-3648 (2017), the contents of which are incorporated herein by reference. […]

The conditions of series [3]: known side effect; cited from earlier work.

Regarding `Oc1ccc(-c2nc(-c3ccncc3)c(-c3ccc(F)cc3)[nH]2)cc1` [SB202190], in series [1], the “MTX-induced upregulation of SPM” value is reported as “blocking”; the “concentrations of several mediators including PD1, MaR2n-3 DPA and RvD1” value is “decreasing”. Moreover, in series [2], the “anti-arthritic actions of MTX” value is “reversed”; the “weight loss, a marker of disease activity” value is “increase”; the joint inflammation entry is reported as “increase”; the “joint concentrations of LTB4” value is on record as “increase”. In addition, in series [2], the joint damage entry is “increase” and the “ability of MTX to regulate neutrophil trafficking to the inflamed joint” value is recorded as “reversed”.
As to `COc1ccc(S(=O)(=O)ON=C2C=C(C)C(=O)C(C)=C2)cc1` [L002], in series [1], the “MTX-induced upregulation of SPM” value is on record as “blocking”; the “concentrations of several mediators including PD1, MaR2n-3 DPA and RvD1” value is “decreasing”. In series [2], the “anti-arthritic actions of MTX” value was “reversed”; the “weight loss, a marker of disease activity” value was “increase”; the joint inflammation entry is given as “increase”; the “joint concentrations of LTB4” value is reported as “increase”. In series [2], the joint damage entry is listed as “increase” and the “ability of MTX to regulate neutrophil trafficking to the inflamed joint” value is recorded as “reversed”.
On to `Cc1oncc1C(=O)Nc1ccc(C(F)(F)F)cc1` [Leflunomide], for which, in series [3], the “High blood pressure, share of people” value was “up to 10% of people”.
